According to patent US10953029B2, “4′-Substituted nucleoside reverse transcriptase inhibitors and preparations thereof” (Merck Sharp & Dohme Corp., priority 2015, dated 2021):
Like-named read-outs stand apart in the source and are kept apart here.

Assays:
[1] = target: T1, adenosine deaminase (ADA) type 1 (Homo sapiens, UniProt P00813); experiment: Adenosine Deaminase (ADA) Half-Life; format: in vitro ADME; settings: human ADA type 1 (adenosine deaminase) in Tris-HCl buffer, time for 50% conversion to inosine product, Tris-HCl buffer pH 7.5, 40° C., LCMS
T1 sequence (P00813 1-363): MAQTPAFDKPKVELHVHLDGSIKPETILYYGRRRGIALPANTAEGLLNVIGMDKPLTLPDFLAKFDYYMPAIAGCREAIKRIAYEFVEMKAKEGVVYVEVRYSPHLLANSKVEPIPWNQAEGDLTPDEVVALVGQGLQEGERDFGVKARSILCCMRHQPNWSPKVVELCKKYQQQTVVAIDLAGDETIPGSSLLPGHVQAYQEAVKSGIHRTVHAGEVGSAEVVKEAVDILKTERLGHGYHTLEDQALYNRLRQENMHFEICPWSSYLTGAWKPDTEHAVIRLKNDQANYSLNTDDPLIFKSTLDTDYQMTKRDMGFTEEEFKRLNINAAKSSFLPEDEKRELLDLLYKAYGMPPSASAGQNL
Method: The data in Table 4 was generated by testing the reactivity of the substrate compound with human ADA type 1 in the presence of Tris-HCl buffer (pH 7.5) at 40° C. and monitoring by LCMS for consumption of starting material. The time necessary for 50% conversion to the corresponding inosine product is noted as the T1/2 in Table 4. It is known that deamination by adenosine deaminase decreases the therapeutic potential of adenosine-like nucleoside inhibitors especially in vivo (see references below). […] It is possible that compounds that are more resistant to ADA will have better pharmacokinetic properties.

[2] = test system: wild-type and multi-drug resistant HIV-1 strains; settings: cited from earlier work
HIV-1 (H9IIIB virus) = experiment: Viking Assay: antiviral potency in a multiple round HIV-1 infection assay (MT4-GFP cells); format: cell-based; settings: Human immunodeficiency virus 1, 10% normal human serum, read-out: Viking, EC50 (10% NHS)
Method: Assessing antiviral potency in a multiple round HIV-1 infection assay. HIV-1 replication was monitored using MT4-gag-GFP clone D3 (hereafter designate MT4-GFP), which are MT-4 cells modified to harbor a GFP reporter gene, the expression of which is dependent on the HIV-1 expressed proteins tat and rev. Productive infection of an MT4-GFP cell with HIV-1 results in GFP expression approximately 24 h post-infection.
MT4-GFP cells were maintained at 37° C./5% CO2/90% relative humidity in RPMI 1640 supplemented with 10% fetal bovine serum, 100 U/mL penicillin/streptomycin, and 400 μg/mL G418 to maintain the reporter gene. For infections, MT4-GFP cells were placed in the same medium lacking G418 and infected overnight with H9IIIB virus at an approximate multiplicity of infection of 0.01 in the same incubation conditions. Cells were then washed and re-suspended in either RPMI 1640 containing 10% or 50% normal human serum at 1.6×10^5 cells/mL (10% or 50% NHS conditions) or in 100% normal human serum at 2×10^5 cells/mL (100% NHS conditions). […]
Infected cells were quantified at two time points, ˜48 h and ˜72 h post-infection, by counting the number of green cells in each well using an Acumen eX3 scanner. […] Inhibition of R0 is calculated for each well, and EC50s determined by non-linear 4-parameter curve fitting.

[3] = test system: wild-type HIV-1-GFP virus; experiment: Antiviral Persistence in Human Peripheral Blood Mononuclear Cells (PBMC); format: cell-based; settings: Human immunodeficiency virus 1, PBMC
Method: PBMCs were obtained from Biological Specialty Corporation, activated with 5 μg/ml PHA-P (Sigma L1668) for 72 hrs, and then washed with fresh medium. Following activation, PBMCs were cultured in media containing 10 IU/ml IL-2 (Roche 11011456001). Cells were treated with a titration of compound for 6 or 24 hrs and washed with fresh medium. To evaluate persistence of antiviral activity following wash-out, PBMCs were maintained for either 24 h or 72 h and then infected by adding wild-type HIV-1-GFP virus (17 μL/well) to the plates and incubating at 37° C./5% CO2/90% relative humidity. Infected cells were quantified at 24 h post-infection by counting the number of green cells in each well using an Acumen eX3 scanner. EC50 values in Table 3 were calculated by non-linear 4-parameter curve fitting.
The antiviral persistence assay is meant to assess for the persistence of antiviral activity upon removal of the nucleoside. […] The publication AIDS Research and Therapy, 2009, 6:5, highlights the value of antiviral persistence.

HIV-1 RT enzyme = target: T2, HIV-1 RT enzyme (Human immunodeficiency virus type 1 group M subtype B, UniProt P04585); experiment: RT Polymerase Assay; format: biochemical
T2 construct: Full-length wild-type and 2 mutant RT proteins were expressed in Escherichia coli BL21(DE3) cells and purified; made in house; host or cells: Escherichia coli BL21(DE3)
Method: Full-length wild-type and 2 mutant RT proteins were expressed in Escherichia coli BL21(DE3) cells and purified. Briefly, the heterodimeric nucleic acid substrate used in the HIV-1 RT polymerase reactions was generated by annealing biotinylated DNA primer to a 500 nucleotide RNA template. The HIV-1 RT enzyme (final concentration of 50 pM) was combined with an inhibitor compound or DMSO (10% DMSO in the final reaction mixture) in assay buffer (62.5 mM Tris-HCl, pH 7.8, 1.25 mM dithiothreitol, 7.5 mM MgCl2, 100 mM KCl, 0.03% CHAPS, 0.125 mM EGTA). This mixture was pre-incubated for 30 minutes at room temperature in microtiter plates. The polymerization reaction was initiated by the addition of template/primer substrate (final concentration: 16.6 nM) and dNTPs (final concentration: 2 μM dCTP, dGTP, dATP, and 66.6 nM Ru-dUTP). After 90 min of incubation at 37° C., reactions were quenched by the addition of EDTA (25 mM). The resulting mixture was incubated for an additional 5 minutes at room temperature followed by transferring the solution (50 μL) to blocked avidin plate from Meso Scale Discovery (MSD). The mixtures were incubated at room temperature for 60 min prior to the quantification of the reaction product via an ECL 6000 imager instrument.

`C#C[C@]1(CO)O[C@@H](n2cnc3c(N)ncnc32)C[C@@H]1O` [EDA, (2R,3S,5R)-5-(6-amino-9H-purin-9-yl)-2-ethynyl-2-(hydroxymethyl)tetrahydrofuran-3-ol] showed a half-life [1] of under 1 h.
In the case of `C#C[C@]1(CO)O[C@@H](n2cnc3c(N)nc(F)nc32)C[C@@H]1O` [EFdA, (2R,3S,5R)-5-(6-amino-2-fluoro-9H-purin-9-yl)-2-ethynyl-2-(hydroxymethyl)tetrahydrofuran-3-ol], the antiviral activity [2] is listed as “potent antiviral activity”.
`C#C[C@]1(CO)O[C@@H](n2cc(F)c3c(N)nc(Cl)nc32)C[C@@H]1O` [Example 1, (2R,3S,5R)-5-(4-amino-2-chloro-5-fluoro-7H-pyrrolo[2,3-d]pyrimidin-7-yl)-2-ethynyl-2-(hydroxymethyl)tetrahydrofuran-3-ol] showed an EC50 (HIV-1 (H9IIIB virus)) of 1.2 nM, a half-life ([1]; value given as symbol) of over 240 h and an EC50 ([3]; 24 h, read-out: EC50 24 h) of 0.38 nM. For the same molecule, the EC50 ([3]; 72 h, read-out: EC50 72 h) was 3.8 nM.
`C#C[C@]1(COP(=O)(O)OP(=O)(O)OP(=O)(O)O)O[C@@H](n2cc(F)c3c(N)nc(Cl)nc32)C[C@@H]1O` [Example 2, ammonium ((2R,3S,5R)-5-(4-amino-2-chloro-5-fluoro-7H-pyrrolo[2,3-d]pyrimidin-7-yl)-2-ethynyl-3-hydroxytetrahydrofuran-2-yl)methyl triphosphate] gave an IC50 (HIV-1 RT enzyme) of 490 nM.
For `Nc1ncnc2c1ncn2[C@H]1C[C@H](O)[C@@H](CO)O1` [Deoxy- adenosine, deoxyadenosine], the half-life [1] was under 0.167 h.
With `Cc1cn([C@H]2C[C@H](N=[N+]=[N-])[C@@H](CO)O2)c(=O)[nH]c1=O` [AZT, 3′-azido-3′-deoxythymidine] the EC50 (HIV-1 (H9IIIB virus)) was 37 nM, the EC50 ([3]; 24 h, read-out: EC50 24 h) was 19 nM and the EC50 ([3]; 72 h, read-out: EC50 72 h) was 68 nM.
